This note sets out measurements from patent publication US12098154B2, “Inhibitors of cyclin-dependent kinases” (Dana-Farber Cancer Institute, Inc., priority 2015, dated 2024).

Test [1] deals with Jurkat cells. As to the kind of experiment: Growth assay with and without washout. The settings on record: 1 uM, 4 hours treatment, assayed 68 hours after washout. The class given is cell-based. As to the method: Cells were treated with each compound for 4 hours and either no washout (no washout) or had compound removed by washing cells with media (washout). Sixty-eight (68) hours after washout, the cells were assayed for antiproliferative effects. Error bars indicate +/−SD.
4 hours after treatment, cells were either not treated or washed three times with RPMI media to remove all compound. Cells were replated and allowed to grow for 68 hours. Cells were assayed using celltiter glo (Promega) to determine cell viability by measuring the amount of ATP present, which is an indicator of cell metabolic activity. Results are graphed as luminescent values (FIG. 1).

Another test addresses T1, CDK12 (Homo sapiens, UniProt Q9NYV4).
T1 construct: endogenous in cells; host or cells: Jurkat
Put plainly: Pulldown assay with biotin-THZ1, blot for Cyclin K. It counts as cell-based. The settings on record: Jurkat cells treated with 1 uM or 200 nM. As to the method: Specifically. […] Decreased pulldown of cyclin K with biotin-THZ1 indicated a loss of CDK12 binding.
(§1) 6 hours after treatment, cells were washed and harvested by resuspending in lysis buffer (50 mM Hepes pH 7.4, 150 mM NaCl, 1% NP-40, 5 mM EDTA, protease and phosphatase inhibitors) and lysing on ice 30 minutes. Lysates were cleared by centrifugation at 15,000 rpm 30 minutes. Biotin-labeled THZ1 was added to 1 uM to lysates and rotated at 4° C. overnight. Streptavidin-agarose beads were washed and 30 uL slurry was added to each lysate and rotated for 1 hour at 4° C. Beads were washed 5 times with lysis buffer and 50 uL 2×LDS buffer was added to each sample. Samples were boiled and equal volume of protein was loaded onto gel. Gel was transferred to nitrocellulose and blotted for Cyclin K and Cyclin H.

Another test has as its target T2, CDK7 (Homo sapiens, UniProt P50613).
T2 construct: endogenous in cells; host or cells: Jurkat
Put plainly: Pulldown assay with biotin-THZ1, blot for Cyclin H. The class given is cell-based. The settings on record: Jurkat cells treated with 1 uM or 200 nM. As to the method:
Compounds E9 and E17 were able to block pulldown of cyclin K at 1 μM and 200 nM. Specifically. […] Decreased pulldown of cyclin K with biotin-THZ1 indicated a loss of CDK12 binding.
as §1

The target in the next test is CDK2/CycA (Homo sapiens, UniProt P24941). Put plainly: CDK2/CycA inhibition (Tables A1, A2). It counts as biochemical.
The subject of test [2] is Pol II Ser2 phosphorylation and MCL1 levels. As to the kind of experiment: Washout expression assay (western blot). The class given is cell-based. The settings on record: Jurkat cells, 1 uM, 4 hours, 6 hours. As to the method: 4 hours after treatment, cells were either not treated or washed three times with RPMI media to remove all compound. Cells were replated and allowed to grow for 6 hours. Cells were harvested, washed 3 times with PBS and resuspended in RIPA buffer (25 mM Tris-HCl (pH 7.6), 150 mM NaCl, 1% NP-40, 1% sodium deoxycholate, 0.1% SDS). Equal amount of protein was loaded onto gel and blotted for Pol II Ser2 (Millipore 04-1571), total pol II (Santa Cruz 17798), Tubulin (Cell Signaling 11H10) or MCL1 (Cell Signaling 4572S)
A general note: Immunoblotting shows a protein as a band on a membrane.

Another test deals with HAP1 cells. As to the kind of experiment: HAP1 cell proliferation assay, wild type vs CDK12 C1039S/CDK13 C1017S. The settings on record: 72 hrs proliferation. It counts as cell-based. On the procedure:
Double mutant cells are 4-fold less sensitive to E17 compared to wild type cells indicating rescue of CDK12/13 inhibition-induced proliferation defects. HAP1 cells were seeded at a density of 12,000 cells/well in 96-well plates. Twenty-four hours later, cells were treated with the indicated compounds in a 10-pt dose escalation format from 1 nM to 10 μM or DMSO control for 72 hours. After 72 hours, the cells were assayed using CellTiter-Glo Luminescent Cell Viability Assay (Promega) to determine cell viability by measuring the amount of ATP present in each sample cell population, which is an indicator of cell metabolic activity. Results were graphed as fraction of the DMSO control at 72 hours. All data points were performed in biological triplicate. Error bars are +/−SD.
Genome Editing: The CRISPR/Cas9 system was used to mutate the endogenous CDK12 and CDK13 loci to encode for CDK12 C1039S and CDK13 C1017S, both of which are putative CDK12/13 inhibitor-refractory mutants. Target-specific oligonucleotides were cloned into pX330, which carries a codon-optimized version of Cas9 and was further modified to express GFP for identifying transfectants. […]

In the next test the target is CDK9/CycT (Homo sapiens, UniProt P50750). As to the kind of experiment: CDK9/CycT inhibition (Tables A1, A2). It counts as biochemical.
Sequence of CDK9/CycT (P50750 whole entry): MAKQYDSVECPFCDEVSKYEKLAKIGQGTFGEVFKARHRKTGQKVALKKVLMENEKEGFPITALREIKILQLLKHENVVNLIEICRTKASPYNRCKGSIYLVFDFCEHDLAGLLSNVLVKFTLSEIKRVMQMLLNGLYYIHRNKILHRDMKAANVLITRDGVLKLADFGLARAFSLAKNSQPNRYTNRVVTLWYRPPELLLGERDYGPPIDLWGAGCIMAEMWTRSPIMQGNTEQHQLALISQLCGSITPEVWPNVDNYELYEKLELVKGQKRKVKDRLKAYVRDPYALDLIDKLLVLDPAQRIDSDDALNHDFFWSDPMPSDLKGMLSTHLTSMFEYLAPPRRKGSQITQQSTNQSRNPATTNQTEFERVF
Sequence of CDK9/CycT (O60563 whole entry partner): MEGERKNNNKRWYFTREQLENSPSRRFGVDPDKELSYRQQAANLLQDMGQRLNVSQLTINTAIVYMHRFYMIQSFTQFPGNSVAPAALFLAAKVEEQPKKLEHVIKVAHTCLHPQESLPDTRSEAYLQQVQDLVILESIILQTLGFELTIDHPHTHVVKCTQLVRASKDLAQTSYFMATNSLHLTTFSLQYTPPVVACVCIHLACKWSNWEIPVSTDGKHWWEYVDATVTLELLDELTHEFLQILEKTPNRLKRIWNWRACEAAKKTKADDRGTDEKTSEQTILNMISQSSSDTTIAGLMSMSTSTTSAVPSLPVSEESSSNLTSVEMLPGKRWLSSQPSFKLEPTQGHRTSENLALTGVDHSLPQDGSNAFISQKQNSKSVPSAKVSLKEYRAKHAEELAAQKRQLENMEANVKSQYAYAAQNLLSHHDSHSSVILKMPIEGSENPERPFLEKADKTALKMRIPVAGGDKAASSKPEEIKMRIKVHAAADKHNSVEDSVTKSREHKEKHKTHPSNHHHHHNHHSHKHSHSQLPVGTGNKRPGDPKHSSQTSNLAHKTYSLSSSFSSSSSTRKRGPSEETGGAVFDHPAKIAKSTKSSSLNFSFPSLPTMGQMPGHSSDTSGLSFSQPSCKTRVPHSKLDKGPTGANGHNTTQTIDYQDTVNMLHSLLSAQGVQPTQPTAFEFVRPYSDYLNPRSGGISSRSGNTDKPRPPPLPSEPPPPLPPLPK
For another test, the target named is CDK7/CycH (Homo sapiens, UniProt P50613). Put plainly: CDK7/CycH inhibition (Tables A1, A2). The class given is biochemical.
Sequence of CDK7/CycH (P50613 whole entry): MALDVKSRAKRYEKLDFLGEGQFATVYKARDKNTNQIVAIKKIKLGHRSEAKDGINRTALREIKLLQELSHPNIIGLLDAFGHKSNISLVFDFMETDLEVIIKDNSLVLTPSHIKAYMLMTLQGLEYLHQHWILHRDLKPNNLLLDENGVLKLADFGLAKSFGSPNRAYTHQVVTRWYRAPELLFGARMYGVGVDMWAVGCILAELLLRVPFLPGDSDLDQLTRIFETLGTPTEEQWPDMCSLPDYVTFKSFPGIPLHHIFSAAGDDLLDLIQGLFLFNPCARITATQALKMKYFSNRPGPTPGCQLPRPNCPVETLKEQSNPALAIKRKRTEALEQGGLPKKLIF
Sequence of CDK7/CycH (P51946 whole entry partner): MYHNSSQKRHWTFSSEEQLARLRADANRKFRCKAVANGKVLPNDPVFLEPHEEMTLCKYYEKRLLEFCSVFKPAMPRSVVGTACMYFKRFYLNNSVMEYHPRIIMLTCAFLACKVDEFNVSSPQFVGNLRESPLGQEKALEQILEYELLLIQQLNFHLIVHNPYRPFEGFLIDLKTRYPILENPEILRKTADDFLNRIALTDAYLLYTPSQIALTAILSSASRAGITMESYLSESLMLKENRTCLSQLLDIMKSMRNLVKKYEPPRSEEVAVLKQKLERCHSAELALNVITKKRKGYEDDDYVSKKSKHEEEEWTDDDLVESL
Test [3] deals with Jurkat cells. Put plainly: Jurkat proliferation assay (CellTiter-Glo). The class given is cell-based. The settings on record: for IC50: Homo sapiens, Jurkat. As to the method: Jurkat cells were seeded at a density of 25,000 cells/well in 96-well plates. Cells were then treated with the indicated compounds in a 10-pt dose escalation format from 1 nM to 10 μM or DMSO control for 72 hours. After 72 hours, the cells were assayed using CellTiter-Glo Luminescent Cell Viability Assay (Promega) to determine cell viability by measuring the amount of ATP present in each sample cell population, which is an indicator of cell metabolic activity. […] All data points were performed in biological triplicate. Error bars are +/−SD.
Jurkat cells were seeded at a density of 25,000 cells/well in 96-well plates. Cells were then treated with the indicated compounds in a 10-pt dose escalation format from 1 nM to 10 μM or DMSO control for 72 hrs. After 72 hrs, cells were assayed using CellTiter-Glo Luminescent Cell Viability Assay (Promega) to determine cell viability by measuring the amount of ATP present in each sample cell population, which is an indicator of cell metabolic activity. […] All data points were performed in biological triplicate. Error bars are +/−SD.

Like-named read-outs stand apart in the source and are kept apart here.

T1 sequence (Q9NYV4 whole entry): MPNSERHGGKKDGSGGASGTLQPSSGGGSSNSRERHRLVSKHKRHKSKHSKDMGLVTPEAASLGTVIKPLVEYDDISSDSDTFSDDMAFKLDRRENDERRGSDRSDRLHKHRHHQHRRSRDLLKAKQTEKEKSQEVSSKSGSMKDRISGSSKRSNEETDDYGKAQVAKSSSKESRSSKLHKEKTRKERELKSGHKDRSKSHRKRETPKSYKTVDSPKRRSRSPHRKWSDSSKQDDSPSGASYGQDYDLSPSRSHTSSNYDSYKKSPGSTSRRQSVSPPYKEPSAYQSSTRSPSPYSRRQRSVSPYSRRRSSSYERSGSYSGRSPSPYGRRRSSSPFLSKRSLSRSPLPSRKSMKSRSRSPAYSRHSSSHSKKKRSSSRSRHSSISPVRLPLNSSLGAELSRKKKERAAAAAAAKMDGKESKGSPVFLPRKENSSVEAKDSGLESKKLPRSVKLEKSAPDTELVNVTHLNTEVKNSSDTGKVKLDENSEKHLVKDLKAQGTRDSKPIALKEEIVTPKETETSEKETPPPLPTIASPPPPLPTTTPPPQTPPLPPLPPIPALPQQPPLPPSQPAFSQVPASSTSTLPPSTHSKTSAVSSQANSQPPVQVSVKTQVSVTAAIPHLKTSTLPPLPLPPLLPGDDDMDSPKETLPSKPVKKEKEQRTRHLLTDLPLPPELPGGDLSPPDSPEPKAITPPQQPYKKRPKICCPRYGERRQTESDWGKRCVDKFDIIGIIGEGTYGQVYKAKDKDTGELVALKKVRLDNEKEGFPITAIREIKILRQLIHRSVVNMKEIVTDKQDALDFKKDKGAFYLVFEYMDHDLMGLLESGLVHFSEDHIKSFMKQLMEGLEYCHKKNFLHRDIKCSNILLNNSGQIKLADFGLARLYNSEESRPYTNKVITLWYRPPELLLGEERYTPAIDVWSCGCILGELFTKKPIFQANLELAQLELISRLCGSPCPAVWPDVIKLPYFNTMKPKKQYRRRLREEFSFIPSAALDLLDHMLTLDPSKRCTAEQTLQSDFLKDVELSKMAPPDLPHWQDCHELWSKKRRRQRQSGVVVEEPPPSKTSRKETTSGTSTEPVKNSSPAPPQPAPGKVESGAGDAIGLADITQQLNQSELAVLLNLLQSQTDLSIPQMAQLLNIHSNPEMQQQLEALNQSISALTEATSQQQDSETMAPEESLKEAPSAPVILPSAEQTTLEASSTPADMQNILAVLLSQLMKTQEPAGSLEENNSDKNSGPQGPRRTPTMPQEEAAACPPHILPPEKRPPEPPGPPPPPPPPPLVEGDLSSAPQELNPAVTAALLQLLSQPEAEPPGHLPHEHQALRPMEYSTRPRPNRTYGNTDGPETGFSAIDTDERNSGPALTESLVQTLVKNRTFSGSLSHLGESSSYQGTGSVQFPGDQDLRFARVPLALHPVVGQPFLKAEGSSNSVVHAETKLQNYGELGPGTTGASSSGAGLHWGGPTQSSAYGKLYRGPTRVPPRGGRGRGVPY
T1 sequence (O75909 whole entry partner): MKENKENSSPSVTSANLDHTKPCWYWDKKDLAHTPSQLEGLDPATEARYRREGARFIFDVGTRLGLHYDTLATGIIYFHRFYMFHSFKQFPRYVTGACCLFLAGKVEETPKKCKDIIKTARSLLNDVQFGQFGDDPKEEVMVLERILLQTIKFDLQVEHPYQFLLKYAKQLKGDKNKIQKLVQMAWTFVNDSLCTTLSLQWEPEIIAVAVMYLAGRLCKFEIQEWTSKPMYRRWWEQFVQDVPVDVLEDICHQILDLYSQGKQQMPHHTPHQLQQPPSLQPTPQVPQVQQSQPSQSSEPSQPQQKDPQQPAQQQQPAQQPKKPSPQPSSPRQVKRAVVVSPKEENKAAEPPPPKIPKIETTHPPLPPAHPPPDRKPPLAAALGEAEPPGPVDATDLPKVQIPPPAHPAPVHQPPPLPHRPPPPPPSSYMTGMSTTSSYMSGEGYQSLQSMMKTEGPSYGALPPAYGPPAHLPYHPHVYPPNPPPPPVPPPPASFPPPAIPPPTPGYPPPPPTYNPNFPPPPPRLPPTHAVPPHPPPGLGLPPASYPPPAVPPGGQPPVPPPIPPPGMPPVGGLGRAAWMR
T2 sequence (P50613 2-346 limits assumed): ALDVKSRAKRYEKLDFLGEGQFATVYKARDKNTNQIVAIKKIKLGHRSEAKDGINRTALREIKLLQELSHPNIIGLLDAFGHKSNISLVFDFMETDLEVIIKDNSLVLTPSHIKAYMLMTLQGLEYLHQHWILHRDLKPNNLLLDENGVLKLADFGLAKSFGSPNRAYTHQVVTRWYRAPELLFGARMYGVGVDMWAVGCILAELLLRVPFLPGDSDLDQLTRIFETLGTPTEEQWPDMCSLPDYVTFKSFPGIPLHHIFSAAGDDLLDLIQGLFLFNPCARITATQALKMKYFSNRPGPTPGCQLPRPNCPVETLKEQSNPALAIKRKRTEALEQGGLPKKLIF
T2 sequence (P51946 whole entry partner): as the sequence (P51946 whole entry partner) above
T2 sequence (P51948 whole entry partner): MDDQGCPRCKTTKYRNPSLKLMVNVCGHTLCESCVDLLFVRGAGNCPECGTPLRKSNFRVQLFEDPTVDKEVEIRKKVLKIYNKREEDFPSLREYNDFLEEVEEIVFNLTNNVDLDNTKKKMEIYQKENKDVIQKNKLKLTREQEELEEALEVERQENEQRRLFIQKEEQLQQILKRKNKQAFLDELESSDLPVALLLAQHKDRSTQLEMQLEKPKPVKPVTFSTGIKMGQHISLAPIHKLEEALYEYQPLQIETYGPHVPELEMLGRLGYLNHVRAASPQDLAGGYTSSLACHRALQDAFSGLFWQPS

Take `C=CC(=O)Nc1cccc(Nc2nc(N[C@H]3CC[C@H](N(C)C)CC3)nc3c(CC)cnn23)c1` [SB1-E-17, N-(3-(2-((1r,4r)-4-(Dimethylamino)cyclohexylamino)-8-ethylpyrazolo[1,5-a][1,3,5]triazin-4-ylamino)phenyl)acrylamide]: the “Inhibition of Jurkat cell viability with and without washout” value in the test with Jurkat cells [1] is given as “irreversibly inhibit Jurkat cell viability”. For the same compound, the “Pulldown of Cyclin K by biotin-THZ1 (CDK12 binding)” value on CDK12 is listed as “blocks the pulldown of Cyclin K”. For the same compound, on CDK7, the “Pulldown of Cyclin H by biotin-THZ1 (CDK7 binding)” value is reported as “not able to bind to CDK7”. The IC50 at CDK2/CycA was 247 nM; against CDK9/CycT, 171 nM; against CDK7/CycH, 1020 nM; in the test on Jurkat cells [3] (72 h, CellTiter-Glo, read-out: IC50 on Jurkat T-ALL cell proliferation), below 100 nM; in the test with Jurkat cells [3] (read-out: Jurkat IC50), 60.6 nM. Also, the “Effect on Polymerase II Serine 2 phosphorylation and MCL1 levels with and without washout” value in test [2] was “irreversible effect”. In addition, the “Loss of sensitivity of CDK12 C1039S/CDK13 C1017S HAP1 cells compared to wild type HAP1 cells” value in the test on HAP1 cells came out at 4 fold. The “Mode of inhibition of Jurkat T-ALL cell proliferation” value with Jurkat cells [3] is reported as “irreversiably inhibit”.
